Experimental data published in article PMC9127750, “Structure-based design of CDC42 effector interaction inhibitors for the treatment of cancer” (Cell reports, 2022).
pIC50: −log10 of the molar value.

How the values were obtained:
Assay in all cases: cells
A172 = conditions: Homo sapiens, A 172, read-out: IC50 ARN22089
Method: (§1) Cancer cell line viability assay was performed using a CellTiterGlo assay. Cells were cultured in their appropriate media and seeded in white multi-well plates. For the assays, cells were incubated with compound at 37°C overnight, and a CellTiterGlo assay was performed to quantify viable cells.

A2058 = conditions: Homo sapiens, A2058, read-out: IC50 ARN22089
Method: as §1

A549 = conditions: Homo sapiens, A549, read-out: IC50 ARN22089
Method: as §1

BEN = conditions: read-out: IC50 ARN22089
Method: as §1

Caki-2 = conditions: Homo sapiens, CAKI-2, read-out: IC50 ARN22089
Method: as §1

DU-145 = conditions: Homo sapiens, DU-145, read-out: IC50 ARN22089
Method: as §1

EFM-192A = conditions: read-out: IC50 ARN22089
Method: as §1

HCC38 = conditions: Homo sapiens, HCC38, read-out: IC50 ARN22089
Method: as §1

HEC-1-B = conditions: Homo sapiens, read-out: IC50 ARN22089
Method: as §1

HL-60 = conditions: Homo sapiens, HL-60, read-out: IC50 ARN22089
Method: as §1

HT-1080 = conditions: Homo sapiens, HT-1080, read-out: IC50 ARN22089
Method: as §1

Hutu 80 = conditions: Homo sapiens, HuTu80, read-out: IC50 ARN22089
Method: as §1

Ishikawa = conditions: Homo sapiens, read-out: IC50 ARN22089
Method: as §1

J82 = conditions: Homo sapiens, J82, read-out: IC50 ARN22089
Method: as §1

K562 = conditions: Homo sapiens, K562, read-out: IC50 ARN22089
Method: as §1

KARPAS 299 = conditions: Homo sapiens, KARPAS-299, read-out: IC50 ARN22089
Method: as §1

KG-1 = conditions: Homo sapiens, KG-1, read-out: IC50 ARN22089
Method: as §1

LOU-NH91 = conditions: LOU-NH91, read-out: IC50 ARN22089
Method: as §1

MDAMB231 = conditions: Homo sapiens, MDA-MB-231, read-out: IC50 ARN22089
Method: as §1

MKN-45 = conditions: Homo sapiens, MKN-45, read-out: IC50 ARN22089
Method: as §1

MiaPaCA2 = conditions: Homo sapiens, MIA PaCa-2, read-out: IC50 ARN22089
Method: as §1

NCI-H1048 = conditions: Homo sapiens, NCI-H1048, read-out: IC50 ARN22089
Method: as §1

NCI-H1437 = conditions: Homo sapiens, NCI-H1437, read-out: IC50 ARN22089
Method: as §1

NCI-H1563 = conditions: Homo sapiens, NCI-H1563, read-out: IC50 ARN22089
Method: as §1

NCI-H1573 = conditions: Homo sapiens, NCI-H1573, read-out: IC50 ARN22089
Method: as §1

NCI-H838 = conditions: Homo sapiens, NCI-H838, read-out: IC50 ARN22089
Method: as §1

OCI-AML5 = conditions: Homo sapiens, OCI-AML-5, read-out: IC50 ARN22089
Method: as §1

OV56 = conditions: OV56, read-out: IC50 ARN22089
Method: as §1

PC3 = conditions: Homo sapiens, PC-3, read-out: IC50 ARN22089
Method: as §1

RERF-LC-Ad2 = conditions: RERF-LC-Ad2, read-out: IC50 ARN22089
Method: as §1

RL95-2 = conditions: Homo sapiens, RL95-2, read-out: IC50 ARN22089
Method: as §1

SK-ES-1 = conditions: Homo sapiens, SK-ES1, read-out: IC50 ARN22089
Method: as §1

SK-MEL-3 = conditions: Homo sapiens, SK-MEL3, read-out: IC50 ARN22089
Method: as §1

SK-N-MC = conditions: Homo sapiens, read-out: IC50 ARN22089
Method: as §1

SK-N-SH = conditions: Homo sapiens, read-out: IC50 ARN22089
Method: as §1

SK.BR-3 = conditions: Homo sapiens, SK-BR-3, read-out: IC50 ARN22089
Method: as §1

SNU-1 = conditions: Homo sapiens, SNU1, read-out: IC50 ARN22089
Method: as §1

SNU840 = conditions: SNU-840, read-out: IC50 ARN22089
Method: as §1

Saos-2 EC = conditions: Homo sapiens, SAOS-2, read-out: IC50 ARN22089
Method: as §1

U-937 = conditions: Homo sapiens, U-937, read-out: IC50 ARN22089
Method: as §1

WM3248 = conditions: Homo sapiens, WM3248, read-out: IC50 WM3248
Method: as §1

SMILES: CN(C)c1cccc(Nc2cc(-c3ccccc3)nc(C3CCNCC3)n2)c1 [ARN22089, N1,N1-dimethyl-N3-(6-phenyl-2-(piperidin-4-yl)pyrimidin-4-yl)benzene-1,3-diamine]
- pIC50 (A172): 5.24
- pIC50 (A2058): 5.43
- pIC50 (A549): 4.96
- pIC50 (BEN): 4.92
- pIC50 (Caki-2): 5.00
- pIC50 (DU-145): 4.96
- pIC50 (EFM-192A): 4.85
- pIC50 (HCC38): 5.00
- pIC50 (HEC-1-B): 4.74
- pIC50 (HL-60): 5.09
- pIC50 (HT-1080): 4.96
- pIC50 (Hutu 80): 4.92
- pIC50 (Ishikawa): 5.07
- pIC50 (J82): 5.23
- pIC50 (K562): 5.05
- pIC50 (KARPAS 299): 4.96
- pIC50 (KG-1): 4.85
- pIC50 (LOU-NH91): 4.54
- pIC50 (MDAMB231): 5.00
- pIC50 (MKN-45): 5.39
- pIC50 (MiaPaCA2): 5.08
- pIC50 (NCI-H1048): 4.66
- pIC50 (NCI-H1437): 4.80
- pIC50 (NCI-H1563): 4.80
- pIC50 (NCI-H1573): 4.62
- pIC50 (NCI-H838): 4.92
- pIC50 (OCI-AML5): 4.82
- pIC50 (OV56): 4.89
- pIC50 (PC3): 5.04
- pIC50 (RERF-LC-Ad2): 5.04
- pIC50 (RL95-2): 5.24
- pIC50 (SK-ES-1): 4.92
- pIC50 (SK-MEL-3): 5.48
- pIC50 (SK-N-MC): 5.33
- pIC50 (SK-N-SH): 5.09
- pIC50 (SK.BR-3): 5.17
- pIC50 (SNU-1): 5.11
- pIC50 (SNU840): 5.19
- pIC50 (Saos-2 EC): 5.05
- pIC50 (U-937): 5.46
- pIC50 (WM3248): 5.34
